Earlier results on one molecule are cited in patent US20190365664A1, “CARYOPHYLLENE FORMULATIONS, APPARATUSES, AND METHODS” (Biotech Institute, LLC, priority 2016, published 2019).

For this data set the following is noted: other studies (National Geographic News, Jun. 24, 2008).

On to `C=C1CC/C=C(\C)CC[C@@H]2[C@@H]1CC2(C)C` [BCP, 4,11,11-Trimethyl-8-methylenebicyclo[7.2.0]undec-4-ene], for which the psychoactive effects entry is reported as “does not have psychoactive effects”.
